{
  "source": "patent US20240173440A1",
  "about": "“HIGH PURITY COPPER RADIOPHARMACEUTICAL COMPOSITIONS AND DIAGNOSTIC AND THERAPEUTIC USES THEREOF” (Nuclidium AG, priority 2022, published 2024)",
  "key": {"hFAP": {"molecular_target": "hFAP (Homo sapiens (Human), UniProt Q12884)", "sequence (Q12884 whole entry)": "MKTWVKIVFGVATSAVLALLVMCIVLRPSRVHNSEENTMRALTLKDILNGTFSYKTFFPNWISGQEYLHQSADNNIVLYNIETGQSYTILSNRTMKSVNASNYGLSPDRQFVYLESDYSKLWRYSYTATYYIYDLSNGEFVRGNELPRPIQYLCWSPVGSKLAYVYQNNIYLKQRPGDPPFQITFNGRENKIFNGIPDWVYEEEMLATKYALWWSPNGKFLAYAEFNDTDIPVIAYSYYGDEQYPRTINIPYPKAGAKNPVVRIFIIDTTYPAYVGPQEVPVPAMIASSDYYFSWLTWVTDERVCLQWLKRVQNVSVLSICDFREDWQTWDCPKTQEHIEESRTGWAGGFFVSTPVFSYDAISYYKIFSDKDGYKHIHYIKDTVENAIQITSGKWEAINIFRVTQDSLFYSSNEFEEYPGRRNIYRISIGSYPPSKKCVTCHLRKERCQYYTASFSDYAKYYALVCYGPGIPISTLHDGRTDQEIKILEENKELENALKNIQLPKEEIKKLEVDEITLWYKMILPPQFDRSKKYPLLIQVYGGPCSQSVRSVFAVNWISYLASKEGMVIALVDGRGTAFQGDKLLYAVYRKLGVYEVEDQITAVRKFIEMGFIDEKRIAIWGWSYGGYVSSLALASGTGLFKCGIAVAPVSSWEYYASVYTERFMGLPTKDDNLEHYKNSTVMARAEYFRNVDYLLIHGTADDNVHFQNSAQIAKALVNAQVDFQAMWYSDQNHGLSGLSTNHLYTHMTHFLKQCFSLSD", "assay": "Saturation binding on isolated HEK-293.hFAP cell membranes", "set-up": "Bmax: unit not given here", "details": "37° C.", "experimental": "The cells were homogenized using Ultra-Turrax, and the homogenized suspension was centrifuged at 500×g for 10 min at 4° C. The supernatant was collected in centrifuge tubes (Beckman Coulter Inc., Brea, CA, USA). This procedure was then repeated 5 times. The collected supernatant was centrifuged in an ultra-centrifuge (Beckman) at 4° C. for 55 min at 49,000×g. Then, the pellet was re-suspended in 10 mM ice-cold HEPES buffer (pH 7.5), aliquoted, and stored at −80° C. The protein concentration of those membrane suspensions was determined by the Bradford method, BSA as the standard.\nEach assay tube contained 170 μL of binding buffer (20 mM HEPES, pH 7.4, containing 4 mM μgCl2, 0.2% BSA, 20 μg/L bacitracin, 20 μg/L PMSF and 200,000 KIU/L aprotinin). The incubation was initiated by adding 30 μL of radioligand solution at 10 times the final concentration and 100 μL of cell membrane suspension to yield 10 μg of protein per well. For the determination of the non-specific binding, 140 μL of the above binding buffer was added along with 30 μL of FAPI-46 to obtain (0.1 mM). Bound fractions were plotted versus the corresponding radioligand concentration at equilibrium. The dissociation constant (KD) and maximal binding capacity (Bmax) values were calculated using GraphPad Software Inc., Prism 7, San Diego, CA, USA (Table 33 and FIG. 21)."}, "HT-1080.hFAP cells": {"tested_on": "HT-1080.hFAP cells", "assay": "In vitro cellular uptake (cell surface and internalized fractions) in HT-1080.hFAP cells", "type": "cell-based, human", "experimental": "(§1) The cellular uptake was studied in vitro using intact cells seeded in 6-well plates overnight. On the day of the experiment, the cells were washed and incubated with each of the exemplified [^61Cu]Cu-radiotracer at different time points, either alone or in the presence of a blocking agent to distinguish between specific and non-specific uptake. At each investigated time point, the medium containing the unbound (free) radiotracer was removed, followed by two washing steps with ice-cold phosphate-buffered saline. The cells were then treated 2×5 min with ice-cold glycine solution (0.05 M, pH 2.8) to detach the cell surface-bound radiotracer (acid released). Afterwards, the cells containing the internalized radiotracer were detached with 1 M NaOH at 37° C. and collected for measurement. The amount of specific cell surface-bound and internalized radiotracer is expressed as percentage of the total applied activity, after subtracting the non-specific values.\nas §1, with “^61Cu-labeled conjugate” for “of the exemplified [^61Cu]Cu-radiotracer”\nThe cells were then preconditioned in 360 μL of assay medium (MEM medium without supplements) at 37° C. for 60 min. 40 μL of a 2 nM solution of ^61Cu-labeled radioligand was added and the cells were incubated at 37° C. The cellular uptake was interrupted at different time points (15 min, 1 hour and 4 hours), by washing twice with ice-cold PBS. Cell surface-bound radioligand was obtained by washing cells twice with ice-cold glycine buffer (pH 2.8), followed by a collection of the internalized fraction with 1 M NaOH. The activity in each fraction was measured in a γ-counter (Cobra II)."}, "[1]": {"tested_on": "HT-1080.hFAP and HT-1080.wt xenografts", "assay": "Quantitative biodistribution in HT-1080.hFAP and HT-1080.wt xenografted mice", "type": "in vivo", "details": "for Biodistribution HT-1080.wt: FAP-negative tumor; for Biodistribution HT-1080.hFAP: FAP-positive tumor", "experimental": "The tumors were allowed to grow to an average volume of 100-200 mm3.\nBiodistribution Studies: The xenografted mice were randomized (n=5 per group) and injected intravenously via the tail vein with the ^61Cu-labeled radioligands (100 μL, […], 0.8-1MBq). Mice were euthanized 1h and 4h pi. by CO2 asphyxiation. Organs of interest and blood were collected, rinsed of excess blood, blotted dry, weighed, and counted in a […]. The samples were counted against a suitably diluted aliquot of the injected solution as the standard and the results are expressed as the percentage of the injected activity per gram of tissue (0% I.A./g)+SD."}, "[2]": {"details": "1 h p.i., HT-1080.hFAP and HT-1080.wt xenografts"}, "[3]": {"details": "4 h p.i., HT-1080.hFAP and HT-1080.wt xenografts"}},
  "data": [
    {"smiles": "N#C[C@@H]1CC(F)(F)CN1C(=O)CNC(=O)c1ccnc2ccc(NC(=O)CCC(=O)N3CCN(C(=O)CC[C@H](C(=O)O)N4CCN5CCN(CC4)CC(=O)[O][61Cu][O]C(=O)C5)CC3)cc12", "note": "[[^61Cu]Cu-NODAGA-F3]", "values": [
      {"measurement": "Bmax", "setting": "hFAP", "value": "7.3-8.1"},
      {"measurement": "Cell surface fraction", "setting": "HT-1080.hFAP cells; 15 min, HT-1080.hFAP cells, specific uptake (minus HT-1080.wt)", "value": "0.9 ± 0.3 % of the applied activity"},
      {"measurement": "Cell surface fraction", "setting": "HT-1080.hFAP cells; Time Point 15 min, 0.2 nM", "value": "0.9 ± 0.3 percentage of the total applied activity"},
      {"measurement": "Biodistribution Heart", "setting": "[1]; 1 hour p.i.", "value": "0.7 ± 0.1", "unit": "% I.A./g"},
      {"measurement": "Biodistribution Intestine", "setting": "[1]; 1 hour p.i.", "value": "0.8 ± 0.2", "unit": "% I.A./g"},
      {"measurement": "Biodistribution Liver", "setting": "[1]; 1 hour p.i.", "value": "0.9 ± 0.1", "unit": "% I.A./g"},
      {"measurement": "Biodistribution Spleen", "setting": "[1]; 1 hour p.i.", "value": "0.5 ± 0.1", "unit": "% I.A./g"},
      {"measurement": "Biodistribution Stomach", "setting": "[1]; 1 hour p.i.", "value": "0.8 ± 0.1", "unit": "% I.A./g"},
      {"measurement": "Biodistribution Adrenal", "setting": "[1]; [2]", "value": "2.1 ± 0.6", "unit": "% IA/g"},
      {"measurement": "Biodistribution Blood", "setting": "[1]; [2]", "value": "1.7 ± 0.1", "unit": "% IA/g"},
      {"measurement": "Biodistribution Femur", "setting": "[1]; [2]", "value": "5.4 ± 1.2", "unit": "% IA/g"},
      {"measurement": "Biodistribution HT1080.hFAP (FAP-positive tumor)", "setting": "[1]; [2]", "value": "7.9 ± 0.9", "unit": "% IA/g"},
      {"measurement": "Biodistribution HT1080.wt (FAP-negative tumor)", "setting": "[1]; [2]", "value": "4.0 ± 2.2", "unit": "% IA/g"},
      {"measurement": "Biodistribution Heart", "setting": "[1]; [2]", "value": "0.7 ± 0.1", "unit": "% IA/g"},
      {"measurement": "Biodistribution Intestine", "setting": "[1]; [2]", "value": "0.8 ± 0.2", "unit": "% IA/g"},
      {"measurement": "Biodistribution Kidney", "setting": "[1]; [2]", "value": "1.6 ± 0.3", "unit": "% IA/g"},
      {"measurement": "Biodistribution Liver", "setting": "[1]; [2]", "value": "0.9 ± 0.1", "unit": "% IA/g"},
      {"measurement": "Biodistribution Lung", "setting": "[1]; [2]", "value": "1.2 ± 0.1", "unit": "% IA/g"},
      {"measurement": "Biodistribution Muscle", "setting": "[1]; [2]", "value": "2.1 ± 0.8", "unit": "% IA/g"},
      {"measurement": "Biodistribution Pancreas", "setting": "[1]; [2]", "value": "1.6 ± 0.2", "unit": "% IA/g"},
      {"measurement": "Biodistribution Spleen", "setting": "[1]; [2]", "value": "0.5 ± 0.1", "unit": "% IA/g"},
      {"measurement": "Biodistribution Stomach", "setting": "[1]; [2]", "value": "0.8 ± 0.1", "unit": "% IA/g"},
      {"measurement": "Biodistribution Blood", "setting": "[1]; 4 hours p.i.", "value": "0.9 ± 0.0", "unit": "% I.A./g"},
      {"measurement": "Biodistribution Heart", "setting": "[1]; 4 hours p.i.", "value": "0.5 ± 0.0", "unit": "% I.A./g"},
      {"measurement": "Biodistribution Intestine", "setting": "[1]; 4 hours p.i.", "value": "0.4 ± 0.1", "unit": "% I.A./g"},
      {"measurement": "Biodistribution Kidneys", "setting": "[1]; 4 hours p.i.", "value": "1.0 ± 0.2", "unit": "% I.A./g"},
      {"measurement": "Biodistribution Liver", "setting": "[1]; 4 hours p.i.", "value": "0.7 ± 0.1", "unit": "% I.A./g"},
      {"measurement": "Biodistribution Lung", "setting": "[1]; 4 hours p.i.", "value": "0.7 ± 0.1", "unit": "% I.A./g"},
      {"measurement": "Biodistribution Pancreas", "setting": "[1]; 4 hours p.i.", "value": "0.9 ± 0.0", "unit": "% I.A./g"},
      {"measurement": "Biodistribution Spleen", "setting": "[1]; 4 hours p.i.", "value": "0.3 ± 0.0", "unit": "% I.A./g"},
      {"measurement": "Biodistribution Stomach", "setting": "[1]; 4 hours p.i.", "value": "0.5 ± 0.0", "unit": "% I.A./g"},
      {"measurement": "Biodistribution Adrenal", "setting": "[1]; [3]", "value": "1.4 ± 0.3", "unit": "% IA/g"},
      {"measurement": "Biodistribution Blood", "setting": "[1]; [3]", "value": "0.9 ± 0.0", "unit": "% IA/g"},
      {"measurement": "Biodistribution Femur", "setting": "[1]; [3]", "value": "3.7 ± 0.3", "unit": "% IA/g"},
      {"measurement": "Biodistribution HT1080.hFAP (FAP-positive tumor)", "setting": "[1]; [3]", "value": "6.4 ± 2.0", "unit": "% IA/g"},
      {"measurement": "Biodistribution HT1080.wt (FAP-negative tumor)", "setting": "[1]; [3]", "value": "1.8 ± 0.3", "unit": "% IA/g"},
      {"measurement": "Biodistribution Heart", "setting": "[1]; [3]", "value": "0.5 ± 0.0", "unit": "% IA/g"},
      {"measurement": "Biodistribution Intestine", "setting": "[1]; [3]", "value": "0.4 ± 0.1", "unit": "% IA/g"},
      {"measurement": "Biodistribution Kidney", "setting": "[1]; [3]", "value": "1.0 ± 0.2", "unit": "% IA/g"},
      {"measurement": "Biodistribution Liver", "setting": "[1]; [3]", "value": "0.7 ± 0.1", "unit": "% IA/g"},
      {"measurement": "Biodistribution Lung", "setting": "[1]; [3]", "value": "0.7 ± 0.1", "unit": "% IA/g"},
      {"measurement": "Biodistribution Muscle", "setting": "[1]; [3]", "value": "1.1 ± 0.1", "unit": "% IA/g"},
      {"measurement": "Biodistribution Pancreas", "setting": "[1]; [3]", "value": "0.9 ± 0.0", "unit": "% IA/g"},
      {"measurement": "Biodistribution Spleen", "setting": "[1]; [3]", "value": "0.3 ± 0.0", "unit": "% IA/g"},
      {"measurement": "Biodistribution Stomach", "setting": "[1]; [3]", "value": "0.5 ± 0.0", "unit": "% IA/g"},
      {"measurement": "Biodistribution HT-1080.wt", "setting": "[1]; 1 hour p.i.", "value": "4.0 ± 2.2", "unit": "% I.A./g"},
      {"measurement": "Biodistribution HT-1080.wt", "setting": "[1]; 4 hours p.i.", "value": "1.8 ± 0.3", "unit": "% I.A./g"},
      {"measurement": "Biodistribution HT-1080.hFAP", "setting": "[1]; 1 hour p.i.", "value": "7.9 ± 0.9", "unit": "% I.A./g"},
      {"measurement": "Biodistribution HT-1080.hFAP", "setting": "[1]; 4 hours p.i.", "value": "6.4 ± 2.0", "unit": "% I.A./g"},
      {"measurement": "accumulation in tumor and target-positive tissues", "setting": "[1]; HT-1080.hFAP and HT-1080.wt xenografts", "value": "high accumulation in FAP-positive (HT-1080.hFAP) tumor and murine-FAP-positive tissues"}
    ]}
  ]
}
